Where two headings read alike, the source gives them in different places.
Tests used:
[1] = system: acetylcholinesterase (AChE); conditions: versus malathion; cited from earlier work
honeybees = conditions: cited from earlier work
bumblebees [2] = assay: contaminated pollen balls fed without enzyme treatment; conditions: no enzyme treatment, after one week
[3] = type: biochemical; conditions: room temperature (25° C.)
Description: To gauge the time taken for treatment to lose functionality, bioactivity of each group treatment relative to OPT-PIMs was measured over time when kept at room temperature (25° C.). […] OPT-PIMs stored at 4° C. maintained almost 100% activity after 14 d (FIG. 3G). The microparticle's capacity for long-term bioactivity and protein sequestration indicates a practical shelf life of the design. Other enzyme-engineering efforts, such as genetic engineering of the catalytic and binding pockets, introducing additional chemical functionalities, such as disulfide bridges or fluorine moieties, or incorporation of additives such as sugars, polyols, detergents, polymers and amino acids, may improve the catalytic efficiency of OPT and further enhance its storage stability.

[4] = type: biochemical
Description: Further experiments were aimed at better understanding the stability of the detoxifying system under significant thermal stress, as any treatment could experience high summer temperatures when administered to bees. […] Thus, experiments were conducted to determine whether microparticle encapsulation offers any protection from thermal denaturation. […]. […] The foregoing result is important for the potential application of the present design, as it has been shown capable of being administered at elevated temperatures.

bumblebees [5] = assay: bumblebee survival on malathion-contaminated pollen balls; type: in vivo, Bombus impatiens
From the text: (§1) FIGS. 5A-5F. Characterization of OPT-PIM efficacy through AChE activity assay and bee survival experiments. FIG. 5A is a schematic showing that formation of thiocholine from acetylthiocholine through AChE cleavage can be characterized using 5,5′-dithiobis-2-nitrobenzoic acid (DTNB). DTNB and thiocholine react to form TNB^2-, the absorbance of which can be measured at 412 nm. […] For this experiment, n=9. The positive control is homogenized honeybee cells without any paraoxon treatment; the negative control is homogenized honeybee cells treated with paraoxon but no free OPT or OPT-PIMs treatment. […] FIG. 5E is a plot of exposure to paraoxon (15 μg g^−1 pollen) over 10 days (n=50). FIG. 5F is a plot of exposure to malathion (750 μg g^−1 pollen) over 10 days (n=50). Statistical analysis was performed by using one-way ANOVA tests (FIGS. 5B and 5D). Data are presented as means and error bars represent the standard deviation.
(§2) Bumblebees consume approximately […] depending on body mass. Based on this figure, pollen balls were initially formed containing 0.432 μg g^−1 paraoxon and 9.383 μg g^−1 malathion to feed without enzyme treatment as a negative control. […] Pollen balls were tested containing 50 μg g^−1 paraoxon over 12 hours to measure the OPT-PIM impact against acute exposure.

[6] = cited from earlier work
[7] = malathion hydrolysis assay (DTNB); type: biochemical; conditions: OPT 0.5 mg ml^−1, 0.44 mM malathion
[8] = cited from earlier work; remark: listed apart in the source
bumblebees [9] = type: in vivo, Bombus impatiens
From the text: as §1, §2

[10] = type: biochemical; conditions: for relative activity in paraoxon hydrolysis: OPT 0.5 mg ml^−1, 0.5 mM paraoxon, normalized to OPT-PIMs at pH 7.4
[11] = type: biochemical; conditions: methyl paraoxon, visible nitrophenol formation
From the text: Considering the loading efficiency decrease at higher PFCs and the intrinsic value of OPT, 5% was selected as a baseline to test OPT loading in PIMs. OPT presented 88.1% PLE (PLC=4.43%) at 5% PFC and 90.1% PLE (PLC=1.81%) at 2% PFC (FIG. 3C). […]. this dilution offered adequate sucrose to render the solution sufficiently attractive to bumblebees for consumption.

AChE = AChE activity assay in homogenized honeybees with paraoxon; type: biochemical, honeybee; conditions: 0.5 mM paraoxon
From the text: as §1, with “treatment. […].” for “treatment.”
Efficacy and survival studies. The characterization of OPT-PIM efficacy was further validated via quantification of AChE activity when mixed with the above described treatment and paraoxon. […] Acetylthiocholine cleavage via AChE can be used to quantify AChE activity, as the thiocholine product reacts with DTNB to form TNB^2−, which has an absorbance at 412 nm (FIG. 5A). […]

CCOC(=O)CC(SP(=O)(OC)OC)C(=O)OCC (centres unmarked) [Malaoxon]
strength of AChE inhibition relative to malathion [1]: 1000 fold

CCOP(=S)(OCC)Oc1ccc([N+](=O)[O-])cc1 [parathion]
oral LD50 (honeybees): 0.175 μg/bee

CCOC(=O)CC(SP(=S)(OC)OC)C(=O)OCC (centres unmarked) [malathion]
health effect of contaminated pollen balls (bumblebees [2]; 9.383 μg g^−1 malathion in pollen balls): no health deterioration | oral LD50 (honeybees): 0.38 μg/bee | oral LD50 for honeybees (honeybees): 0.38 μg per bee

amidohydrolase phosphotriesterase [free OPT]
activity retained on storage ([3]; after 7 days): ~30% | activity retained on storage ([3]; after 14 days): < 10% | relative activity in paraoxon hydrolysis after incubation ([4]; 30° C., relative to OPT-PIMs at 30° C.): half the bioactivity of OPT-PIMs | relative activity in paraoxon hydrolysis after incubation ([4]; 50° C., normalized to OPT-PIMs at 30° C.): 36.5% | relative activity in paraoxon hydrolysis after incubation ([4]; temperature>60° C., normalized to OPT-PIMs at 30° C.): 5.0% | mortality (bumblebees [5]; 750 μg g^−1 malathion pollen balls, after 5 days): 100% | survival (bumblebees [5]; microcolonies fed malathion-contaminated pollen patties, within/after 5 days (overview)): 0% | deactivation temperature ([6]; Co2+ OPT complex, pH 8.0-9.5): 60 °C | temperature at which thermostability is maintained ([6]; Co2+ OPT complex, pH 8.0-9.5): less than 45 °C | activity relative to maximum potential ([6]; pH 7.0): less than half of its maximum potential | relative activity in malathion hydrolysis ([7]; pH 4.8): 0.6% | relative activity in malathion hydrolysis ([7]; pH 7.4): 17.1% | Kcat Km^−1 [8]: 7.6e+07 M⁻¹ s⁻¹ | mortality (bumblebees [9]; 15 μg g^−1 paraoxon pollen balls, 50 μg ml^−1 OPT treatments, after 5 days): 100% | fatalities (bumblebees [9]; 50 μg g^−1 paraoxon pollen balls, 12 hours): 62.5% | relative activity in paraoxon hydrolysis ([10]; pH 4.8): 1.7% | relative activity in paraoxon hydrolysis ([10]; pH 7.4): 49.7% | Km ([10]; paraoxon, in 2 g ml^−1 sucrose): 4.8 mM | maximum velocity (Vmax) ([10]; paraoxon, in 2 g ml^−1 sucrose): 0.13 mM/min | OPT concentration sufficient to initiate rapid hydrolysis [11]: 0.5 mg/mL | AChE activity retained less than OPT-PIMs-treated samples (AChE): 18.8%

CCOP(=O)(OCC)Oc1ccc([N+](=O)[O-])cc1 [paraoxon]
health effect of contaminated pollen balls (bumblebees [2]; 0.432 μg g^−1 paraoxon in pollen balls): no health deterioration | oral LD50 for honeybees (honeybees): 0.0175 μg per bee | relative AChE activity reduction (AChE; no free OPT or OPT-PIMs treatment (negative control)): ~72%
